# Residue numbers refer to the chain shown, from its start. Several values for one entry are separate records, joined by “and”; a condition that tells them apart may be missing. Equal entries are not always repeated. Where two headings read alike, the source gives them in different places.
# Experiments:
# [1] = biological target: T. adhaerens GluE1αA receptor (wildtype) (Trichoplax adhaerens, UniProt B3SAW0); experiment: whole-cell patch clamp, agonist-evoked currents in CHO-K1 cells; assay type: cell-based; conditions: for activation of ligand-gated current: ligand tested on its own at 10 mM; for normalized peak inward current, Avg / normalized peak inward current, single recording: wild type
# [2] = system: GluE1αA m1 variant (F732Y); assay type: cell-based, Trichoplax adhaerens; conditions: m1; ligand 10 mM; normalized to glycine
# Source text: (§1) As noted, a model has been put forward that defines iGluR ligand specificity based on a set of key amino acids in the LBD of iGluRs[11]. […] To the best of our knowledge, whether these few positions are indeed solely responsible for ligand specificity, and moreover, can be altered to switch specificity for natural ligands, has not been experimentally tested. […] We also created a triple mutant, with an additional phenylalanine to tyrosine mutation at position 732 (F732Y; m3 variant), to make the T. adhaerens epsilon receptor resemble GluN2A and GluA2 receptors from human, reasoning that this mutation might enhance glutamate sensitivity. We also generated a single F732Y mutant (m1 variant), to assess the contribution of this amino acid to ligand specificity in isolation.
# (§2) The cDNA of the T. adhaerens GluE1αA receptor was cloned into the mammalian expression vector pIRES2-EGFP, using a 5’ nested primer that inserted a mammalian consensus Kozak sequence of […] (Supplementary Table 5). Several mutants/variants of this receptor where also prepared via site directed mutagenesis using standard procedures and primers listed in Supplementary Table 5. For electrophysiological comparisons, we commissioned GenScript (USA) to synthesize the cDNA of the human GluA2 […] receptor (NCBI accession number NP_001077088.2), which was cloned into the pIRES2-EGFP vector with a Kozak sequence flanking the start codon and restriction enzymes SalI and BamHI at the 5’ and 3’ ends of the cDNA, respectively. Receptor cDNAs in the various pIRES2 constructs were transfected into Chinese Hamster Ovary-K1 (CHO-K1; Sigma) cells cultured in Dulbecco’s Modified Eagle Medium Nutrient Mixture F-12 (DMEM/F12) supplemented with 10% Fetal Bovine Serum (FBS) and 1% penicillin-streptomycin at 37°C. Transfections were done with 2 μg of plasmid vector using the transfecting reagent PolyJet^TM (SignaGen Laboratories, USA) according to the manufacturer’s instructions and plated onto glass coverslips in 35 mm dishes the next day. Transfected cells were incubated at 28°C for 2 to 4 days, then coverslips were transferred to a new 60 mm dish with 5 mL of external recording solution. […] Agonists and pharmacological compounds used in this study were dissolved in corresponding external solutions. […] Patch pipettes were pulled using a P-1000 micropipette puller (Sutter, USA), from thick-walled borosilicate tubing (1.5 and 0.86 outer and inner diameter, respectively), to a resistance of between 1 and 6 megaohms.
# [3] = system: GluE1αA m2 variant (S653G, I655T); assay type: cell-based, Trichoplax adhaerens; conditions: for normalized peak inward current, Avg / normalized peak inward current, single recording / normalized current (dose response), Avg / normalized current (dose response), single recording: m2
# Source text: as §1, §2
# [4] = system: GluE1αA m3 variant (S653G, I655T, F732Y); assay type: cell-based, Trichoplax adhaerens; conditions: for normalized peak inward current, Avg / normalized peak inward current, single recording / normalized current (dose response), Avg / normalized current (dose response), single recording: m3
# Source text: as §1, §2
# [5] = biological target: T1, GluE1αA wildtype receptor (Trichoplax adhaerens, UniProt B3SAW0); conditions: wild type, 10 mM glycine
# T1 sequence (B3SAW0 1-341): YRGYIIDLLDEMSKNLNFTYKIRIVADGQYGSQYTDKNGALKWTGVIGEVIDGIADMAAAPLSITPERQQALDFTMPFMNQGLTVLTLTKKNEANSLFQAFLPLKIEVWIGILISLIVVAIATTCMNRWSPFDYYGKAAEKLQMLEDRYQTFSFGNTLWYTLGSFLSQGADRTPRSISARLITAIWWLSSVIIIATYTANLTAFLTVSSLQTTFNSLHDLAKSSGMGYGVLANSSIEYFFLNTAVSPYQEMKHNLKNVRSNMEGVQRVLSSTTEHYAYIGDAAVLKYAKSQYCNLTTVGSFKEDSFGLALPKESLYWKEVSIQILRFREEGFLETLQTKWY
# GluE1αA m3 variant = biological target: T2, GluE1αA m3 variant (Trichoplax adhaerens, UniProt B3SAW0, F306Y/I236T/S234G); conditions: 10 mM glutamate
# T2 sequence (B3SAW0 1-341 S234G/I236T/F306Y): T1 sequence (B3SAW0 1-341) with S234G, I236T, F306Y
# [6] = ligand 10 mM, normalized to glycine
# [7] = ligand 10 mM, normalized to glutamate
structure (smiles),measurement,setting,value
N[C@@H](CCC(=O)O)C(=O)O [glutamate],activation of ligand-gated current,[1],no responses
same,"normalized peak inward current, Avg",[1]; agonist 1 mM,0.0035
same,"normalized peak inward current, Avg",[1]; [6],0.00871
same,"normalized peak inward current, Avg",[2],0.02
same,"normalized peak inward current, Avg",[3]; agonist 1 mM,0.76
same,"normalized peak inward current, single recording","[3]; agonist 1 mM, listed as Glu",0.74 and 0.64 and 0.71 and 0.87 and 0.80
same,"normalized current (dose response), Avg",[3]; glutamate 0.3 mM,0.0181
same,"normalized current (dose response), Avg",[3]; glutamate 1 mM,0.22
same,"normalized current (dose response), single recording",[3]; glutamate 1 mM,0.14 and 0.22 and 0.25 and 0.19 and 0.27
same,"normalized current (dose response), Avg",[3]; glutamate 3 mM,0.76
same,"normalized current (dose response), single recording",[3]; glutamate 3 mM,0.66 and 0.88 and 0.67 and 0.63 and 0.98 and 0.72
same,"normalized current (dose response), Avg",[3]; glutamate 10 mM,0.98
same,"normalized current (dose response), single recording",[3]; glutamate 10 mM,1.00 and 0.98 and 0.92
same,"normalized peak inward current, Avg",[3]; [7],1.00
same,"normalized peak inward current, single recording",[3]; [7],1.00
same,sensitivity to agonist,"[3]; m2 variant, 1 mM",robust responses
same,EC50,"[3]; m2 variant, dose response of normalized current",1810 ± 200 µM
same,"normalized peak inward current, Avg",[4]; agonist 1 mM,1.00
same,"normalized peak inward current, single recording","[4]; agonist 1 mM, listed as Glu",1.03 and 1.05 and 1.08 and 0.95 and 0.92 and 0.91
same,"normalized current (dose response), Avg",[4]; glutamate 0.1 mM,0.02
same,"normalized current (dose response), Avg",[4]; glutamate 0.3 mM,0.16
same,"normalized current (dose response), single recording",[4]; glutamate 0.3 mM,0.14 and 0.12 and 0.11 and 0.13 and 0.20 and 0.16 and 0.19
same,"normalized current (dose response), Avg",[4]; glutamate 1 mM,0.88
same,"normalized current (dose response), single recording",[4]; glutamate 1 mM,0.97 and 0.78 and 0.74 and 0.89 and 0.95 and 0.87 and 0.86 and 0.96
same,"normalized current (dose response), Avg",[4]; glutamate 3 mM,0.95
same,"normalized current (dose response), single recording",[4]; glutamate 3 mM,0.98 and 0.83 and 1.00 and 0.87
same,"normalized peak inward current, Avg",[4]; [7],1.00
same,"normalized peak inward current, single recording",[4]; [7],1.00
same,EC50,"[4]; m3 variant, dose response of normalized current",610 ± 60 µM
"C[C@H](N)C(=O)O [alanine, L-alanine]","normalized current (dose response), Avg",[1],0.80
same,"normalized current (dose response), single recording",[1],0.66 and 0.73 and 0.79 and 0.89 and 0.75 and 0.91 and 0.87 and 0.80
same,activation of ligand-gated current,[1],activated
same,"normalized peak inward current, Avg",[1]; [6],0.89
same,"normalized peak inward current, single recording",[1]; [6],0.85 and 0.96 and 0.83 and 1.00 and 0.82
same,"normalized current (dose response), Avg","[1]; wildtype, ligand 0.01 mM",0.0244
same,"normalized current (dose response), Avg","[1]; wildtype, ligand 0.03 mM",0.28
same,"normalized current (dose response), Avg","[1]; wildtype, ligand 0.30 mM",1.00
same,"normalized current (dose response), single recording","[1]; wildtype, ligand 0.30 mM",1.00
same,"normalized current (dose response), Avg","[1]; wildtype, ligand […]",0.60
same,"normalized peak inward current, Avg",[2],1.12
same,"normalized peak inward current, single recording",[2],1.10 and 1.06 and 1.08 and 1.13 and 1.23
same,"normalized peak inward current, Avg",[3]; [7],0.36
same,"normalized peak inward current, single recording",[3]; [7],0.33 and 0.37 and 0.40 and 0.41 and 0.31
same,"normalized peak inward current, Avg",[4]; [7],0.0342
N[C@@H](CO)C(=O)O [L-serine],activation of ligand-gated current,[1],activated
same,"normalized peak inward current, Avg",[1]; [6],0.94
same,"normalized peak inward current, single recording",[1]; [6],1.00 and 0.98 and 0.94 and 0.78 and 0.93 and 0.97
same,"normalized current (dose response), Avg","[1]; wildtype, ligand 0.03 mM",0.017
same,"normalized current (dose response), Avg","[1]; wildtype, ligand 0.10 mM",0.35
same,"normalized current (dose response), Avg","[1]; wildtype, ligand 0.30 mM",0.95
same,"normalized current (dose response), single recording","[1]; wildtype, ligand 0.30 mM",1.00 and 0.97 and 0.95 and 0.77 and 0.99
same,"normalized current (dose response), Avg","[1]; wildtype, ligand 1.00 mM",1.00
same,"normalized current (dose response), single recording","[1]; wildtype, ligand 1.00 mM",0.99 and 1.00 and 0.98
same,"normalized current (dose response), Avg","[1]; wildtype, ligand […]",0.63
same,"normalized peak inward current, Avg",[2],1.05
same,"normalized peak inward current, single recording",[2],1.18 and 1.01 and 1.00 and 1.05
same,"normalized peak inward current, Avg",[3]; [7],0.20
same,"normalized peak inward current, single recording",[3]; [7],0.17 and 0.18 and 0.24 and 0.27
same,"normalized peak inward current, Avg",[4]; [7],0.07
N[C@H](CO)C(=O)O [D-serine],activation of ligand-gated current,[1],activated
same,"normalized peak inward current, Avg",[1]; [6],0.95
same,"normalized peak inward current, single recording",[1]; [6],0.93 and 1.00 and 0.86 and 0.89
same,"normalized current (dose response), Avg","[1]; wildtype, ligand 0.03 mM",0.0178
same,"normalized current (dose response), Avg","[1]; wildtype, ligand 0.10 mM",0.20
same,"normalized current (dose response), Avg","[1]; wildtype, ligand 0.30 mM",0.78
same,"normalized current (dose response), single recording","[1]; wildtype, ligand 0.30 mM",0.63 and 0.81 and 0.90 and 0.84 and 0.69 and 0.70
same,"normalized current (dose response), Avg","[1]; wildtype, ligand 1.00 mM",0.97
same,"normalized current (dose response), single recording","[1]; wildtype, ligand 1.00 mM",1.00 and 0.99 and 0.87 and 0.90
same,EC50,"[1]; wildtype, monophasic dose-response fit of normalized whole-cell current",190 ± 40 µM
same,"normalized peak inward current, Avg",[2],0.76
same,"normalized peak inward current, single recording",[2],0.75 and 0.83 and 0.85 and 0.77 and 0.60
same,"normalized peak inward current, Avg",[3]; [7],0.06
same,"normalized peak inward current, single recording",[3]; [7],0.0548 and 0.0529 and 0.07 and 0.06 and 0.05
same,"normalized peak inward current, Avg",[4]; [7],0.19
CC(C)[C@H](N)C(=O)O [valine],activation of ligand-gated current,[1],weakly
same,"normalized peak inward current, Avg",[1]; [6],0.35
same,"normalized current (dose response), Avg","[1]; wildtype, ligand 0.30 mM",0.0282
same,"normalized current (dose response), Avg","[1]; wildtype, ligand 1.00 mM",0.32
same,"normalized current (dose response), Avg","[1]; wildtype, ligand 3.00 mM",0.83
same,"normalized current (dose response), single recording","[1]; wildtype, ligand 3.00 mM",0.85 and 0.78 and 0.82 and 0.89 and 0.92 and 0.71 and 0.81 and 0.88
same,"normalized current (dose response), Avg","[1]; wildtype, ligand 10.00 mM",1.00
same,"normalized current (dose response), single recording","[1]; wildtype, ligand 10.00 mM",1.00
same,"normalized current (dose response), Avg","[1]; wildtype, ligand […]",0.56
same,"normalized peak inward current, Avg",[2],0.0347
same,"normalized peak inward current, Avg",[3]; [7],0.00917
same,"normalized peak inward current, Avg",[4]; [7],0.0123
"N#Cc1cc2[nH]c(=O)c(=O)[nH]c2cc1[N+](=O)[O-] [CNQX, 6-cyano-7-nitroquinoxaline-2,3-dione]","current normalized to peak amplitude in the absence of CNQX, Avg",[5]; CNQX 1 µM,0.99
same,"current normalized to peak amplitude in the absence of CNQX, single recording",[5]; CNQX 1 µM,1.07 and 0.91 and 0.98 and 1.00 and 1.01 and 0.97 and 0.94
same,"current normalized to peak amplitude in the absence of CNQX, Avg",[5]; CNQX 10 µM,0.86
same,"current normalized to peak amplitude in the absence of CNQX, single recording",[5]; CNQX 10 µM,0.80 and 0.79 and 0.93 and 0.89 and 0.85 and 0.87
same,"current normalized to peak amplitude in the absence of CNQX, Avg",[5]; CNQX 100 µM,0.29
same,"current normalized to peak amplitude in the absence of CNQX, Avg",GluE1αA m3 variant; CNQX 1 µM,1.22
same,"current normalized to peak amplitude in the absence of CNQX, single recording",GluE1αA m3 variant; CNQX 1 µM,1.09 and 1.17 and 1.15 and 0.98 and 1.22 and 1.35 and 1.57
same,"current normalized to peak amplitude in the absence of CNQX, Avg",GluE1αA m3 variant; CNQX 10 µM,0.42
same,"current normalized to peak amplitude in the absence of CNQX, single recording",GluE1αA m3 variant; CNQX 10 µM,0.44 and 0.38 and 0.42 and 0.52 and 0.35
same,"current normalized to peak amplitude in the absence of CNQX, Avg",GluE1αA m3 variant; CNQX 100 µM,0.08
